Results taken from US11801255B2, “Lipid disulfide prodrugs and uses related thereto” (priority 2017, dated 2023).
Where two headings read alike, the source gives them in different places.

Tests used:
HIV-1 = assay: microbe, parasite or virus in culture; conditions: for TI(CC50/EC50): HIV-1, PBMCs; for HIV-1 potency compared to parent nucleoside TFV: in words
Protocol: (§1) Compounds synthesized were evaluated against HIV-infected PBMCs and antiviral activity was assessed by measuring reverse transcriptase in cell supernatants. Compounds 11a-e, 12a-e, and 13 were assayed against HBV and qPCR was used to quantify viral DNA following incubation in HepG2.2.15 cells after 6 days.

PBMCs = assay: in vitro; type: cell-based, human
HBV = assay: Antiviral activity against HBV in HepG2.2.15 cells, viral DNA by qPCR after 6 days; conditions: for HBV TI (CC50/EC50): HepG2; for EC50: read-out: HBV EC50 (HepG2)
Protocol: as §1

HepG2 = assay: Cytotoxicity: viability of uninfected HepG2 cells; type: cell-based; conditions: read-out: HBV CC50 (HepG2)
[1] = monkeys; cited from earlier work
[2] = rats; cited from earlier work
in vitro = type: cell-based, human; conditions: human; Table 1; viability of uninfected cells reduced by 50%; read-out: HIV-1 CC50 (PBMCs)
[3] = read-out: HIV-1 EC50 (PBMCs), Table 2
[4] = Table 2, read-out: HIV-1 CC50 (PBMCs)
[5] = read-out: HIV-1 activity (EC50), PBMCs
[6] = Table 4, read-out: CC50 (PBMCs)
[7] = read-out: EC50 (PBMCs), Table 4, HIV-1

Compound	HIV-1 TI (CC50/EC50) (HIV-1; Table 2, PBMCs)	EC50 (HIV-1; [3])	CC50 (PBMCs; [4])	HBV TI (CC50/EC50) (HBV; Table 2)	EC50 (HBV; Table 2)	CC50 (HepG2; Table 2)	TI(CC50/EC50) (HIV-1; Table 4)	EC50 (HIV-1; [5])	CC50 (PBMCs; [6])	also measured
CCCCCCCCCCCCSSCCOP(=O)(CO[C@H](C)Cn1cnc2c(N)ncnc21)OCCSSCCCCCCCCCCCC [Compound 12b]	>85.0	1.18 µM	> 100 µM	>1	> 100 µM	> 100 µM				
Nc1ncnc2c1ncn2CCOCP(=O)(O)O [adefovir]										bioavailability [1]: < 1%; bioavailability [2]: 8-11%
CCCCCCCCCCCCCCCCSSCCOP(=O)(CO[C@H](C)Cn1cnc2c(N)ncnc21)OCCSSCCCCCCCCCCCCCCCC [Compound 12d]	4.0	6.32 µM	> 25 µM	>1	> 25 µM	> 25 µM				
CCCCCCCCCCCCCCCCSSCCOP(=O)(COC(C)Cn1cnc2c(N)ncnc21)OCc1ccccc1 (mixture of isomers) [Compound 19]							2,300	0.018 µM	41.1 µM	
CCCCCCCCCCCCCCCCSSCCOP(=O)(COC(C)Cn1cnc2c(N)ncnc21)OCC(C)(C)C (mixture of isomers) [Compound 18]							>700	0.14 µM	> 100 µM	
CCCCCCCCCCCCCCSSCCOP(=O)(CO[C@H](C)Cn1cnc2c(N)ncnc21)OCCSSCCCCCCCCCCCCCC [Compound 12c]	>529	0.189 µM	> 100 µM	>1	> 100 µM	> 100 µM				HIV-1 potency compared to parent nucleoside TFV (HIV-1): two-fold increase in activity
CCCCCCCCCCCCCCCCSSCCOP(=O)(COC(C)Cn1cnc2c(N)ncnc21)OCC (mixture of isomers) [Compound 14]							104		36.2 µM	EC50 (HIV-1; [7]): 0.349 µM
tenofovir disoproxil fumarate [TDF, reference compound]	9,500	0.0046 µM	43.7 µM	86	0.34 µM	29.2 µM	9,500	0.0046 µM	43.7 µM	HIV-1 TI (CC50/EC50) (HIV-1; Table 1, PBMCs): 9,500; HIV-1 TI (CC50/EC50) (HIV-1; Table 3, PBMCs): 9,500; EC50 (HIV-1; [7]): 0.0046 µM; EC50 (HIV-1; read-out: HIV-1 EC50 (PBMCs), Table 1, inhibit HIV-1 by 50%, average of triplicate): 0.0046 µM; EC50 (HIV-1; read-out: HIV-1 EC50 (PBMCs), Table 3): 0.0045 µM; CC50 (PBMCs; Table 1, viability of uninfected cells reduced by 50%, read-out: HIV-1 CC50 (PBMCs)): 43.7 µM; CC50 (PBMCs; Table 3, read-out: HIV-1 CC50 (PBMCs)): 44 µM; HBV TI (CC50/EC50) (HBV; Table 1): 190; HBV TI (CC50/EC50) (HBV; Table 3): 190; EC50 (HBV; Table 1, inhibit HBV by 50%): 0.34 µM; EC50 (HBV; Table 3): 0.34 µM; CC50 (HepG2; Table 1, uninfected cells): 64.5 µM; CC50 (HepG2; Table 3): 64.5 µM
CCCCCCCCCCCCCCCCSSCCOP(=O)(COC(C)Cn1cnc2c(N)ncnc21)Nc1ccccc1 (mixture of isomers) [Compound 20]							7,000	0.005 µM	34.2 µM	
CCCCCCCCCCCCCCCCCCSSCCOP(=O)(CO[C@H](C)Cn1cnc2c(N)ncnc21)OCCSSCCCCCCCCCCCCCCCCCC [Compound 12e]	>76	0.331 µM	> 25 µM	>1	> 25 µM	> 25 µM				HIV-1 potency compared to parent nucleoside TFV (HIV-1): comparable to TFV
CCCCCCCCCCCCCCCCOCCCOP(=O)(O)CO[C@H](C)Cn1cnc2c(N)ncnc21 [CMX-157, Hexadecyloxypropyl-Tenofovir, reference compound]										HIV-1 TI (CC50/EC50) (HIV-1): >5000; EC50 (HIV-1; Human immunodeficiency virus 1, PBMC, read-out: HIV-1 EC50 (PBMCs)): 0.02 µM; EC50 (HIV-1; Human immunodeficiency virus 1, PBMC, read-out: HIV-1 activity (EC50)): 0.02 µM; CC50 (in vitro): > 100 µM
CCCCCCCCCCCCCCCCCCOP(=O)(COC(C)Cn1cnc2c(N)ncnc21)OCCSSCCCCCCCCCCCCCCCC (mixture of isomers) [Compound 21]							>50	0.911 µM	> 50 µM	
